Marks after values point to notes of the source that are not given here.
How the values were obtained:
[1] = target: T1, N-cadherin/Fc chimeric protein (Homo sapiens, UniProt P19022); assay: Cadherin/Fc binding assay: phage ELISA on N-cadherin/Fc; set-up: key to ELISA Phage Binding to N-Cadherin/Fc Chimeric Protein 1.2 mM calcium / ELISA Phage Binding to N-Cadherin/Fc Chimeric Protein 2 mM EDTA / ELISA Phage Binding to Cadherin/Fc Chimeric Proteins N−: +: Phage bound to the chimeric protein; −: No phage bound to the chimeric protein
T1 construct: extracellular domain of human N-cadherin (Asp160-Ala724); purchased R&D Systems, Minneapolis, Minn
T1 sequence (P19022 160-724): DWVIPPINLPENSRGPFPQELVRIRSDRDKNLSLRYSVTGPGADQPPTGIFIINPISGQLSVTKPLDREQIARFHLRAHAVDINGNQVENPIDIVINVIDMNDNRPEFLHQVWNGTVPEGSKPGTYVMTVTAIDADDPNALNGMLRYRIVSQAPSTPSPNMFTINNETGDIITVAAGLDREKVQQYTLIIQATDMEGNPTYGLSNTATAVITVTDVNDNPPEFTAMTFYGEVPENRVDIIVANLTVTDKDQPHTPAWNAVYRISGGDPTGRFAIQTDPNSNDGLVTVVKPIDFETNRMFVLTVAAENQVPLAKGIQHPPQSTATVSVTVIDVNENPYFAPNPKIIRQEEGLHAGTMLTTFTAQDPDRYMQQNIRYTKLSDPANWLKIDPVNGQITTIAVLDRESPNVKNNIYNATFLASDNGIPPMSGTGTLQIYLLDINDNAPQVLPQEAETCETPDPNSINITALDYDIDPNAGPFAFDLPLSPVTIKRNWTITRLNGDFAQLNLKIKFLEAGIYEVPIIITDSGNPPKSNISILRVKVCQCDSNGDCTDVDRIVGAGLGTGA
Excerpt: (§1) The peptide libraries, Ph.D.-C7C™ and Ph.D.-12™ (New England BioLabs) were used in this study. These libraries are composed of 2×10^9 randomized 7 amino acid sequences flanked by cysteine residues and linear 12 amino acid sequences, respectively. The amino acid sequences are incorporated into the minor coat protein, pIII, of M13 phage. The N-cadherin/Fc chimeric protein (R&D Systems, Minneapolis, Minn.) consists of the extracellular domain of human N-cadherin (Asp160-Ala724) and the Fc region of human IgG1. The E-cadherin/Fc chimeric protein (R&D Systems, Minneapolis, Minn.) consists of the extracellular domain of human E-cadherin (Asp155-Ile707) and the Fc region of human IgG1.
The binding of each clone to the cadherin/Fc chimeric proteins was confirmed by ELISA. Wells of ProBind microtiter plates (Falcon) were coated with either N-cadherin/Fc or E-cadherin/Fc chimeric protein (100 ng/well) or human IgG1 (which contains the Fc fragment) (100 ng/well). […] Non-coated wells were also used to exclude any phage that bound to the plastic surface. […] M13 phage without any insert were used to control the non-specific binding of the phage itself to the target. […] […] Horseradish peroxidase substrate, TMB (Sigma), was added to each well (100 μl/well and after color development the reaction was stopped by addition of 100 μl 0.5 M sulphuric acid to each well. The intensity of the color was measured at 450 nm.
(§2) The phage clones shown to bind to the N-cadherin/Fc chimeric protein by ELISA were also evaluated for their ability to bind to E-cadherin/Fc and VE-cadherin/Fc chimeric proteins. The phage clones shown to bind to the E-cadherin/Fc chimeric protein by ELISA were also evaluated for their ability to bind to N-cadherin/Fc and VE-cadherin/Fc chimeric proteins. The same ELISA protocol described in the previous section was used to perform this evaluation with the exception that the wells were coated with either 100 ng N-cadherin/Fc, E-cadherin/Fc or VE-cadherin/Fc chimeric protein (R&D Systems, Minneapolis, Minn.).

[2] = target: T2, VE-cadherin/Fc chimeric protein (Homo sapiens, UniProt P33151); assay: Cadherin specificity: phage ELISA on VE-cadherin/Fc; format: binding; set-up: key: +: Phage bound to the chimeric protein; −: No phage bound to the chimeric protein
T2 construct: purchased R&D Systems, Minneapolis, Minn
Description: (§3) The binding of each clone to the cadherin/Fc chimeric proteins was confirmed by ELISA. Wells of ProBind microtiter plates (Falcon) were coated with either N-cadherin/Fc or E-cadherin/Fc chimeric protein (100 ng/well) or human IgG1 (which contains the Fc fragment) (100 ng/well). After blocking the nonspecific sites with TBS containing 3% BSA and 1.2 mM CaCl2 for 1 h at 37° C., phage clones (10^9 pfu) diluted in TBST containing 3% BSA and 1.2 mM CaCl2 (100 μl/well). Non-coated wells were also used to exclude any phage that bound to the plastic surface. After 1 h incubation at room temperature, wells were washed 3 times with TBST containing 3% BSA and 1.2 mM CaCl2. M13 phage without any insert were used to control the non-specific binding of the phage itself to the target. Monoclonal anti-M13 antibody conjugated to horseradish peroxidase (Amersham Biosciences, Piscataway, N.J.) was diluted in TBST containing 3% BSA and 1.2 mM CaCl2 (1:2,000) and added to each well (100 μl/well). After 1 h incubation at room temperature, wells were washed three times with TBST containing 3% BSA and 1.2 mM CaCl2 and once with TBS containing 1.2 mM CaCl2. Horseradish peroxidase substrate, TMB (Sigma), was added to each well (100 μl/well and after color development the reaction was stopped by addition of 100 μl 0.5 M sulphuric acid to each well. The intensity of the color was measured at 450 nm.
as §2

[3] = target: T3, E-cadherin/Fc chimeric protein (Homo sapiens, UniProt P12830); assay: Cadherin/Fc binding assay: phage ELISA on E-cadherin/Fc; set-up: key: +: Phage bound to the chimeric protein; −: No phage bound to the chimeric protein
T3 construct: extracellular domain of human E-cadherin (Asp155-Ile707); purchased R&D Systems, Minneapolis, Minn
T3 sequence (P12830 155-707): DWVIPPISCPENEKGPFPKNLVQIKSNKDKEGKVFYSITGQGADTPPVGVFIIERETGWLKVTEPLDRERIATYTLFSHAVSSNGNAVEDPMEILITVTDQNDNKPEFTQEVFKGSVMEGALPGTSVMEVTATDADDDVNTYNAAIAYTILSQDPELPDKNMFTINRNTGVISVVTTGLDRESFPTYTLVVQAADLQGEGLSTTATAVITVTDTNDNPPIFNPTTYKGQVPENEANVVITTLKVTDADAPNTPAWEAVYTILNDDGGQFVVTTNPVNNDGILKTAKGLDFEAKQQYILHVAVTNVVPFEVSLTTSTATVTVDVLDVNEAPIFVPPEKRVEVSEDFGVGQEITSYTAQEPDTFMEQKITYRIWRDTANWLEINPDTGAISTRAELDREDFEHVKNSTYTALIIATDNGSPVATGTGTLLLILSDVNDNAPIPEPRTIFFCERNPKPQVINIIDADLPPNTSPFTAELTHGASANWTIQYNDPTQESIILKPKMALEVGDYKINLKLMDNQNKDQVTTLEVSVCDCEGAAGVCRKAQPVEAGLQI
Excerpt: as §1, §3, §2

[4] = Table 4, Ph.D.-12 library clones
[5] = Table 7, Ph.D.-12 clones selected on E-cadherin/Fc
[6] = Table 6, Ph.D.-C7C clones selected on E-cadherin/Fc
[7] = Table 2, Ph.D.-C7C library clones

T2 sequence (P33151 with tags, fused parts or gaps limits assumed, species assumed): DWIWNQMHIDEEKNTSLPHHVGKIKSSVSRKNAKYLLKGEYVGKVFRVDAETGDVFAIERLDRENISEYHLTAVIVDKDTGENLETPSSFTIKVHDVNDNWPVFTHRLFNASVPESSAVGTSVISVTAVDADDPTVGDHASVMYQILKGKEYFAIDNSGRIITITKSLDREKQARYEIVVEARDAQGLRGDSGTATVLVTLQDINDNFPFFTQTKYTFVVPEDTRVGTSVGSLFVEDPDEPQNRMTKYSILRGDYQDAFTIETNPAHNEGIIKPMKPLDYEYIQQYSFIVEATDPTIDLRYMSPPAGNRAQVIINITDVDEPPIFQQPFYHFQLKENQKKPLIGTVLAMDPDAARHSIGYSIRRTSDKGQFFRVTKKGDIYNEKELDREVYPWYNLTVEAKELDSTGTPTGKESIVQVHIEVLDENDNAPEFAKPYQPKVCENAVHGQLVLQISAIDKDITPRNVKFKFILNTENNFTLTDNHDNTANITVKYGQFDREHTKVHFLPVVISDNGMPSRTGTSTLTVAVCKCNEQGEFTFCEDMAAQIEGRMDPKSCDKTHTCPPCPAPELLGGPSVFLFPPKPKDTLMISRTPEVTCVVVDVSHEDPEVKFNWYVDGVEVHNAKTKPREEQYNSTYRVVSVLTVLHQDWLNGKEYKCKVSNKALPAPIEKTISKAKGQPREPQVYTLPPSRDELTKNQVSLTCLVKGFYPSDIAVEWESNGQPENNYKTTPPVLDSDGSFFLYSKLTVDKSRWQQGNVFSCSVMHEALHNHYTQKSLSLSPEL

AWQVHYSYVASS [Nc 12-a7]
ELISA Phage Binding to N-Cadherin/Fc Chimeric Protein 1.2 mM calcium [1, 4]: + | ELISA Phage Binding to N-Cadherin/Fc Chimeric Protein 2 mM EDTA [1, 4]: + | ELISA Phage Binding to Cadherin/Fc Chimeric Proteins VE− [2, 4]: − | ELISA Phage Binding to Cadherin/Fc Chimeric Proteins E− [3, 4]: +

GWTVFYPDNLRP [Ec 12-18]
ELISA Phage Binding to Cadherin/Fc Chimeric Proteins N− [1, 5]: + | ELISA Phage Binding to Cadherin/Fc Chimeric Proteins VE− [2, 5]: − | ELISA Phage Binding to Cadherin/Fc Chimeric Proteins E− [3, 5]: +

CSRPQSGLC [Ec a23]
ELISA Phage Binding to Cadherin/Fc Chimeric Proteins N− [1, 6]: + | ELISA Phage Binding to Cadherin/Fc Chimeric Proteins VE− [2, 6]: − | ELISA Phage Binding to Cadherin/Fc Chimeric Proteins E− [3, 6]: +

EWDFFWPPTQTP [Ec 12-19]
ELISA Phage Binding to Cadherin/Fc Chimeric Proteins N− [1, 5]: + | ELISA Phage Binding to Cadherin/Fc Chimeric Proteins VE− [2, 5]: − | ELISA Phage Binding to Cadherin/Fc Chimeric Proteins E− [3, 5]: +

HWYITTGPVREK [Nc 12-01]
ELISA Phage Binding to N-Cadherin/Fc Chimeric Protein 1.2 mM calcium [1, 4]: +* | ELISA Phage Binding to N-Cadherin/Fc Chimeric Protein 2 mM EDTA [1, 4]: + | ELISA Phage Binding to Cadherin/Fc Chimeric Proteins VE− [2, 4]: − | ELISA Phage Binding to Cadherin/Fc Chimeric Proteins E− [3, 4]: −**

CSKYNSPLC [Ec a4]
ELISA Phage Binding to Cadherin/Fc Chimeric Proteins N− [1, 6]: + | ELISA Phage Binding to Cadherin/Fc Chimeric Proteins VE− [2, 6]: − | ELISA Phage Binding to Cadherin/Fc Chimeric Proteins E− [3, 6]: +

WELRVSSPC [Nc a7]
ELISA Phage Binding to N-Cadherin/Fc Chimeric Protein 1.2 mM calcium [1, 7]: + | ELISA Phage Binding to N-Cadherin/Fc Chimeric Protein 2 mM EDTA [1, 7]: − | ELISA Phage Binding to Cadherin/Fc Chimeric Proteins VE− [2, 7]: − | ELISA Phage Binding to Cadherin/Fc Chimeric Proteins E− [3, 7]: −

WTMCYPDTC [Ec 7]
ELISA Phage Binding to Cadherin/Fc Chimeric Proteins N− [1, 6]: + | ELISA Phage Binding to Cadherin/Fc Chimeric Proteins VE− [2, 6]: −** | ELISA Phage Binding to Cadherin/Fc Chimeric Proteins E− [3, 6]: +*

QWQLHWPASKQA [Ec 12-11]
ELISA Phage Binding to Cadherin/Fc Chimeric Proteins N− [1, 5]: + | ELISA Phage Binding to Cadherin/Fc Chimeric Proteins VE− [2, 5]: − | ELISA Phage Binding to Cadherin/Fc Chimeric Proteins E− [3, 5]: +

EWTYTFPTAHSI [Ec 12-a18]
ELISA Phage Binding to Cadherin/Fc Chimeric Proteins N− [1, 5]: + | ELISA Phage Binding to Cadherin/Fc Chimeric Proteins VE− [2, 5]: − | ELISA Phage Binding to Cadherin/Fc Chimeric Proteins E− [3, 5]: +

EWFWSWPGYSNT [Ec 12-a13]
ELISA Phage Binding to Cadherin/Fc Chimeric Proteins N− [1, 5]: + | ELISA Phage Binding to Cadherin/Fc Chimeric Proteins VE− [2, 5]: − | ELISA Phage Binding to Cadherin/Fc Chimeric Proteins E− [3, 5]: +

SWTFYWPDAQLG [Ec 12-06]
ELISA Phage Binding to Cadherin/Fc Chimeric Proteins N− [1, 5]: + | ELISA Phage Binding to Cadherin/Fc Chimeric Proteins VE− [2, 5]: − | ELISA Phage Binding to Cadherin/Fc Chimeric Proteins E− [3, 5]: +

KWELTYFANSFP [Nc 12-a3]
ELISA Phage Binding to N-Cadherin/Fc Chimeric Protein 1.2 mM calcium [1, 4]: + | ELISA Phage Binding to N-Cadherin/Fc Chimeric Protein 2 mM EDTA [1, 4]: + | ELISA Phage Binding to Cadherin/Fc Chimeric Proteins VE− [2, 4]: − | ELISA Phage Binding to Cadherin/Fc Chimeric Proteins E− [3, 4]: −

— patent publication US8603986B2, “Compounds and methods for modulating cadherin-mediated processes” (McGill University, priority 2005, dated 2013)
